Marks after values point to notes of the source that are not given here.
What was measured:
anti-SRBC antibody = assay: Sheep Red Blood Cell (SRBC) hemolysis test, antibody formation; format: in vivo, BALB/c mice; conditions: for anti-SRBC antibody formation, X ± SD (Unit): healthy mice, SRBC day 12 (IFN-γ, IL-2 3×10^5 IU/kg/day), saline 32 ± 7
Description: Sheep red blood cells (SRBC) were prepared by collecting blood from cervical vein and put into a sterile flask with glass beads. The flask was shaken for 3 minutes and the blood then mixed with Alsever solution (glucose 2.05 g, NaCl 0.4 g, […] 0.8 g, adjust to 100 ml with distilled water) and stored at 4° C. Immediately before use, samples were centrifuged at 130 g, 5 minutes to collect the SRBC. The cells were washed two times by re-suspension and centrifugation in normal saline. Then the cell pellet was collected by centrifugation at 180 g for 10 minutes and re-suspended in saline to make the final working SRBC suspension, 2% (v/v).
Complement was prepared by adding 10 volumes of fresh Cavy serum into one volume centrifuge packed SRBC, and then gently shaking for 30 minutes at 4° C. The SRBC was removed by centrifugation at 200 g for 10 minutes. 10 volumes of normal saline were added to obtain the working complement solution.
The test substances were administered as described in section 1.1, plus intraperitoneal injection 0.2 ml SRBC per mouse on day 12. On the day after the last test substance administration (day 16), blood was collected from the eye canthus and left at room temperature for one hour for serum exudation. After centrifugation at 200 g for 10 minutes, the serum was diluted by 500 times with normal saline.
To 1 ml diluted mouse serum of each mouse, 0.5 ml SRBC suspension was added. Ice cold. Then 1 ml working complement solution was added and incubated at 37° C. water bath for 10 minutes. Reactions were terminated by ice cold. Samples were then centrifuged at 200 g for 10 minutes to obtain the supernatant.
To 1 ml of this supernatant, 3 ml Drabkin solution was added and left at room temperature for 10 minutes. OD540 nm was obtained.
Reference OD540 nm was obtained by mixing 0.25 ml SRBC suspension with Drabkin solution to 4 ml and placed at room temperature for 10 minutes before OD540 nm was taken.
Sample serum index=(OD540 nm of test sample÷reference OD540 nm)×500

T lymphocyte = T lymphocyte transformation test (ConA-stimulated spleen cells of treated mice, MTT); format: in vivo, BALB/c mice; conditions: for X ± SD (stimulation index): healthy mice, saline 1.3 ± 0.1; for effect on T lymphocyte transformation (summary): statistically significant difference from saline in any of the dosage groups 0.5-500 μg/kg/day
Description: (§1) The above substances were all dissolved in 0.5 ml saline and injected intraperitoneal (i.p.) for 15 continuous days, once per day.
(§2) Ten mice per group. The day after the last test substance administration, the mice were sacrificed by cervical dislocation. The spleen was isolated aseptically and manually dispersed in cold D-Hank's solution using an injection needle. The dispersed cell suspension was further sieved through a 100 gauge 150 μm diameter stainless steel sieve. After centrifugation at 200 g for 10 minutes, the supernatant was discarded. The cell pellet was re-suspended in 10 volume of Tris-NH4Cl buffer and then kept standing still for 10 minutes at room temperature. The suspended cells were collected by centrifugation at 150 g for 10 minutes. The cells were washed 2-4 times with cold D-Hank's solution by re-suspending and collecting by centrifugation with condition as described above. The washed cells were then diluted to the desired cell densities by RPMI-1640 culture medium, containing 10% fetal bovine serum.
(§3) Spleen cells of density 1×10^6/ml were placed onto a 96 wells cell culture plate, 100 μL/well, three parallel wells each of the assay sample and control sample per mouse. To the assay wells, 100 μl/well ConA of 100 μg/ml in RPMI-1640 was added, and […] plain RPMI-1640 was used for the controls. The cells were incubated for 66 hrs at 37° C., 5% CO2. The cells were then pelleted by centrifugation at 150 g for 10 minutes.
50 μl/well MTT of 1 mg/ml in RPMI-1640 was added to the cell pellet and the cells re-suspended by shaking for 2 minutes. The incubation was continued for 4 hours. The supernatant was discarded after centrifugation at 150 g for 10 minutes. 120 μl 40 mM HCl-2-propanol was added to the cell pellet and shaken for 3 minutes. […]
Each mouse formed three assay wells and three control wells. The Stimulation Index (SI) of each mouse was obtained by first deriving the average OD of the three parallel wells, then dividing the value of the assay wells by the control wells.

IL-2 = assay: T lymphocyte IL-2 secretion test (HT-2 cell bioassay of ConA supernatant); format: in vivo, BALB/c mice; conditions: for activity of T lymphocyte in secreting IL-2, X ± SD (IU): healthy mice
Description: as §3
HT-2 cells at log phase were collected by centrifugation at 150 g for 10 minutes, and washed three times with cold Hank's solution by re-suspension and centrifugation. The collected HT-2 cells were re-suspended in RPMI-1640 and incubated at 37° C., 5% CO2 for 30 minutes. The cells were further washed twice with RPMI-1640 by re-suspension and centrifugation, and re-suspended to final concentration of 2×10^5/ml with RPMI-1640.
rIL-2 was diluted to the following concentration with RPMI-1640: 500 IU/ml, 250 IU/ml, 125 IU/ml, 62.5 IU/ml, 31.25 IU/ml, and […].
The plate was incubated at 37° C., 5% CO2 for 68 hours, then centrifuged at 150 g for 15 minutes and the supernatant removed. 100 μl 0.5 mg/ml MTT in RPMI-1640 without phenolsulfonphthalein was added into each well. After shaking for 3-4 minutes to re-suspend the cells, continue to incubate for another 4 hours. Samples were then centrifuged at 150 g for 15 minutes and the supernatant was removed. To each well, 120 μl 40 mM HCl-2-propanol was added, mixed for 3-4 minutes and OD analyzed at 570 nm, referenced at 630 nm with an ELISA plate reader.
The average OD of the three parallel wells of each dilution was taken and plotted against concentration on a semi-log paper, concentration on the X-axis. The concentration at 50% OD saturation was obtained for both the testing supernatant and rIL-2.

spleen = assay: Immunity organ weight test, spleen index; format: in vivo, BALB/c mice; conditions: for weight of spleen (spleen index), X ± SD (%): healthy mice, saline 0.53 ± 0.05; for effect on the weight of the spleen (summary): statistically significant difference from saline in any of the dosage groups 0.5-500 μg/kg/day
Description: (§4) One day after the last test substance administration (day 16), the liver, spleen, and thymus gland were separated and blotted dry with filter paper and weighed. The phagocytosis index α was calculated as below: α=(^3√{square root over ( )}K)(W÷WLS)
Spleen index (%)=(spleen weight/body weight)×100%

thymus gland = assay: Immunity organ weight test, thymus gland index; format: in vivo, BALB/c mice; conditions: for weight of thymus gland (thymus gland index), X ± SD (%): healthy mice, saline 0.12 ± 0.02; for effect on the weight of the thymus gland (summary): statistically significant difference from saline in any of the dosage groups 0.5-500 μg/kg/day
Description: as §4
Thymus gland index (%)=(thymus weight/body weight)×100%

NK cell = NK cell cytotoxicity activity test (spleen cells of treated mice against YAC-1 target cells, MTT); format: in vivo, BALB/c mice; conditions: for NK cell cytotoxic activity, X ± SD (%): healthy mice; for effect on the cytotoxic activity of NK cells (summary): statistically significant difference from saline in any of the dosage groups 0.5-500 μg/kg/day
Description: as §1, §2
Mice spleen cells were prepared to 4×10^6/ml as described in section 1.1 above. Target cells YAC-1 were brought to log phase and adjusted to 1×10^5/ml. Using a 96 wells cell culture plate, […] were added to the control well containing only the spleen cells; […] and 100 μl culture medium were added to the control well containing only target cells; 100 μl mouse spleen cells and 100 μl target cells were added to the NK activity assay well. Three parallel sets of the above were prepared per mouse.
Samples were centrifuged at 150 g for 10 minutes to collect the cells. The supernatant was discarded and 50 μl/well MTT of 1 mg/ml was added. The reaction-mixture was then shaken for 2 minutes, and incubated at 37° C., 5% CO2 for 4 hours. The supernatant was discarded after centrifugation at 150 g for 10 minutes. […] 40 mM HCl-2-propanol was added and shaken for 3 minutes. An ELISA reader was used to obtain OD570 nm of each well referenced at 630 nm.

interferon (IFN) = tested on: interferon (IFN); set-up: species or system BALB/c mice; conditions: mouse, in vivo
[1] = peptide 5 μg/kg/day i.p. 15 days
[2] = peptide 500 μg/kg/day i.p. 15 days
[3] = statistically significant difference from saline in any of the dosage groups 0.5-500 μg/kg/day
[4] = peptide 5 μg/kg/day i.p. 15 days (IFN-γ, IL-2 3×10^5 IU/kg/day)
[5] = peptide 500 μg/kg/day i.p. 15 days (IFN-γ, IL-2 3×10^5 IU/kg/day)
[6] = peptide 50 μg/kg/day i.p. 15 days (IFN-γ, IL-2 3×10^5 IU/kg/day)
[7] = peptide 0.5 μg/kg/day i.p. 15 days
[8] = peptide 500 μg/kg/day i.p. 15 days (IFN-γ, IL-2 3×10^5 IU/kg/day), saline 63 ± 9

Row | Substance | anti-SRBC antibody formation, X ± SD (Unit) (anti-SRBC antibody; [1]) | anti-SRBC antibody formation, X ± SD (Unit) (anti-SRBC antibody; [2]) | X ± SD (stimulation index) (T lymphocyte; [5]) | effect on T lymphocyte transformation (summary) (T lymphocyte) | effect on the weight of the spleen (summary) (spleen) | weight of thymus gland (thymus gland index), X ± SD (%) (thymus gland; [4]) | weight of thymus gland (thymus gland index), X ± SD (%) (thymus gland; [6]) | weight of thymus gland (thymus gland index), X ± SD (%) (thymus gland; [5]) | effect on the weight of the thymus gland (summary) (thymus gland) | anti-SRBC antibody formation, X ± SD (Unit) (anti-SRBC antibody; [7]) | NK cell cytotoxic activity, X ± SD (%) (NK cell; [8]) | effect on the cytotoxic activity of NK cells (summary) (NK cell) | further results
1 | Ala Gly Asp Asp Ala Pro Arg Ala Val Phe (AGDDAPRAVF; listed as Sus scrofa) [CMS007] | 122 ± 12*^@^ Unit | 69 ± 17*^@ Unit | 1.6 ± 0.1 | enhance | decrease | – | – | – | – | – | – | – | effect on the synthesis of anti-SRBC antibody upon the antigenic challenge (summary) (anti-SRBC antibody; [3]): enhance; X ± SD (stimulation index) (T lymphocyte; [4]): 1.7 ± 0.1; activity of T lymphocyte in secreting IL-2, X ± SD (IU) (IL-2; peptide 5 μg/kg/day i.p. 15 days (IFN-γ, IL-2 3×10^5 IU/kg/day), saline 37 ± 9): 64 ± 12 IU; activity of T lymphocyte in secreting IL-2, X ± SD (IU) (IL-2; peptide 500 μg/kg/day i.p. 15 days (IFN-γ, IL-2 3×10^5 IU/kg/day), saline 39 ± 10): 86 ± 15*^ IU; effect on the secretion of interleukin-2 (IL-2) by T lymphocytes (summary) (IL-2; [3]): enhance; weight of spleen (spleen index), X ± SD (%) (spleen; [2]): 0.32 ± 0.05 %
2 | Phe Asn Glu Gln (FNEQ; printed: Phe Asn Glu Gln) [CMS029] | 147 ± 23*^@^ Unit | 115 ± 22*^@^ Unit | 1.7 ± 0.3 | enhance | decrease | 0.21 ± 0.03 % | 0.18 ± 0.05 % | 0.22 ± 0.04*^@^ % | increase | 18 ± 7 Unit | 87 ± 4 % | increase | anti-SRBC antibody formation, X ± SD (Unit) (anti-SRBC antibody; peptide 50 μg/kg/day i.p. 15 days): 143 ± 13*^@^ Unit; weight of spleen (spleen index), X ± SD (%) (spleen; Table 28, peptide 5 μg/kg/day (so in the source) i.p. 15 days (IFN-γ, IL-2 3×10^5 IU/kg/day)): 0.42 ± 0.04 %
3 | Phe Gln Pro Ser Phe (FQPSF; printed: Phe Gln Pro Ser Phe) [CMS028] | 121 ± 48*^@^ Unit | – | – | – | – | 0.28 ± 0.06*^@^ % | 0.18 ± 0.04 % | 0.19 ± 0.02 % | increase | 18 ± 5 Unit | 90 ± 5 % | increase | weight of thymus gland (thymus gland index), X ± SD (%) (thymus gland; peptide 0.5 μg/kg/day i.p. 15 days (IFN-γ, IL-2 3×10^5 IU/kg/day)): 0.20 ± 0.06 %; NK cell cytotoxic activity, X ± SD (%) (NK cell; peptide 0.5 μg/kg/day i.p. 15 days (IFN-γ, IL-2 3×10^5 IU/kg/day), saline 58 ± 7): 79 ± 3 %; effect on the secretion of IFN by T lymphocytes (summary) (interferon (IFN)): enhance; activity of T lymphocyte in secreting IFN, X ± SD (IU) (interferon (IFN); ip): 96 ± 13 IU

From US20060167229A1, “Biologically active peptide conjugates” (priority 2002, published 2006)
